Measured values: patent publication US20230116137A1, “METHODS FOR TREATING COLORECTAL AND METASTATIC COLORECTAL CANCERS” (Isofol Medical AB, priority 2017, published 2023)
Where a name gives a salt, the structure may show the parent alone. Read-outs that look alike come from different tables or passages of the source.

What was measured:
[1] = test system: solid tumours; conditions: cited from earlier work
[2] = test system: colorectal tumors; conditions: cited from earlier work
[3] = test system: solid tumors of stage IV metastatic colorectal cancer; experiment: Treatment of patients diagnosed with stage IV metastatic colorectal cancer with bevacizumab, oxaliplatin, 5-FU and 6R-MTHF; CT measurement of lesions, RECIST 1.1; format: in vivo, human
Description: The ORR may be calculated as follows: ORR=sum of partial responses plus complete responses as per RECIST 1.1 (a set of published rules that define when tumours in cancer patients progress during treatments)([Eisenhauer E A, Therasse P, Bogaerts J, Schwartz L H, Sargent D, Ford R, et al. New response evaluation criteria in solid tumours: revised RECIST guideline (version 1.1). Eur J Cancer. 2009 January; 45(2):228-47; incorporated by reference in its entirety]. As defined herein, a “complete response (CR)” means the disappearance of all target lesions. Any pathological lymph nodes (whether target or non-target) must have reduction in short axis to <10 mm. As used herein, a “partial response (PR)” means at least a 30% decrease in the sum of diameters of target lesions, taking as reference the baseline sum diameters.As used herein, “progressive disease (PD)” means at least a 20% increase in the sum of diameters of target lesions, taking as reference the smallest sum on study (this includes the baseline sum if that is the smallest on study). […] The appearance of one or more new lesions is also considered progression.
(§1) Bevacizumab was administered at a dose of 5 mg/kg by intravenous infusion over 30 to 90 minutes. Following administration of bevacizumab, oxaliplatin was administered at a dose of 85 mg/m^2 by intravenous infusion between 15 and 120 minutes. Following oxaliplatin administration, 5-fluorouracil (5-FU) at a dose of 400 mg/m^2 was administered by intravenous bolus within 5 minutes. Thirty minutes after administration of the 5-FU intravenous bolus, 6R-MTHF at a dose of 60 mg/m^2 was administered by intravenous bolus (completed within 3 minutes). About 5 minutes after completion of the 6R-MTHF intravenous bolus administration, an intravenous infusion of 5-FU at a dose of 2,400 mg/m^2 was initiated. The infusion was paused to administer an intravenous bolus of 6R-MTHF at a dose of 60 mg/m^2 (completed within 3 minutes). The 5-FU infusion was maintained for 46 hours.
as §1, §1

[4] = test system: metastatic colorectal cancer; conditions: Phase II trial, previously untreated metastatic colorectal cancer; cited from earlier work
[5] = test system: pancreas cancer; conditions: CoFactor combined with 5-FU, phase I/II; cited from earlier work
[6] = test system: colorectal cancer; conditions: Phase IIb study; cited from earlier work

Nc1nc2c(c(=O)[nH]1)N(C=O)C(CNc1ccc(C(=O)N[C@@H](CCC(=O)O)C(=O)O)cc1)CN2 (some centres unmarked) [LV, calcium salt of 5-formyl-5,6,7,8-tetrahydrofolic acid]
overall response rate ([1]; LV added to 5-FU): over 20%
response rate ([2]; LV added to 5-FU): 21%

Nc1nc2c(c(=O)[nH]1)N1CN(c3ccc(C(=O)N[C@@H](CCC(=O)O)C(=O)O)cc3)C[C@H]1CN2 [6R-MTHF, [6R]-5,10-methylene tetrahydrofolate]
tumor response ([3]; Example 2 patient, second-line, 8-week treatment period): stable disease
size of lesions (CT) ([3]; Example 2 patient, second-line, baseline 25, 13 and 12 mm (abdomen), after 8 weeks (CT at 10 weeks plus 2 days)): unchanged in size
size of lesion ([3]; Example 3 patient, second-line, 9 mm lesion, between 16 and 24 weeks): unchanged in size
tumor response ([3]; Example 3 patient, second-line, after 8 weeks): partial response and no progression
tumor response ([3]; Example 3 patient, second-line, after 16 weeks): partial response and no progression
fate of 10 mm lesion ([3]; Example 3 patient, second-line, baseline 10 and 16 mm (liver and lung), 8 weeks): disappearance
size of lesion (CT-verified) ([3]; Example 3 patient, second-line, baseline 16 mm lesion, 8 weeks): 13 mm
tumor response ([3]; Example 3 patient, second-line, between 16 and 24 weeks): no progression
size of lesion (CT-verified) ([3]; Example 3 patient, second-line, lesion 16 mm at baseline, 13 mm at 8 weeks, after 16 weeks): 9 mm
tumor response ([3]; Example 4 patient, second-line, 8-week treatment period): stable disease
size of lesion ([3]; Example 4 patient, second-line, baseline 35 mm (liver), after 8 weeks): unchanged in size
size of lesion ([3]; Example 4 patient, second-line, baseline 35 mm (liver), after 16 and 24 weeks): unchanged in size
tumor response ([3]; Example 4 patient, second-line, through 24 weeks): no progression
size of lesion ([3]; Example 5 patient, second-line, baseline 80 mm (liver), after 8 weeks): 96 mm
tumor response ([3]; Example 6 patient, second-line, 8-week treatment period): stable disease
size of lesion ([3]; Example 6 patient, second-line, 41 mm lesion (baseline 44 mm), after 16 weeks): unchanged in size
size of lesion ([3]; Example 6 patient, second-line, baseline 44 mm (liver), after 8 weeks): 41 mm
tumor response ([3]; Example 6 patient, second-line, through 16 weeks): stable disease and no progression
tumor response ([3]; Example 7 patient, second-line, 8-week treatment period): stable disease and no progression
size of lesion ([3]; Example 7 patient, second-line, baseline 22 mm (liver), after 8 weeks): unchanged in size
size of lesion ([3]; Example 7 patient, second-line, baseline 22 mm (liver), after additional four cycles (8 weeks)): unchanged in size
tumor response ([3]; Example 7 patient, second-line, through 16 weeks): no progression
tumor response ([3]; Example 8 patient, first-line, 8-week treatment period): stable disease and no progression
size of lesion ([3]; Example 8 patient, first-line, baseline 72 mm (liver), after 8 weeks): 59 mm
size of lesion ([3]; Example 8 patient, first-line, baseline 72 mm, 59 mm at 8 weeks, after 16 weeks): 53 mm
tumor response ([3]; Example 8 patient, first-line, through 16 weeks): stable disease and no progression
tumor response ([3]; Example 9 patient, second-line, 8-week treatment period): stable disease and no progression
tumor response ([3]; Example 9 patient, second-line, 16-week treatment period): stable disease and no progression
size of lesion ([3]; Example 9 patient, second-line, baseline 57 mm (abdomen), after 8 weeks): 56 mm
size of lesion ([3]; Example 9 patient, second-line, baseline 57 mm, 56 mm at 8 weeks, after 16 weeks): 57 mm
tumor response ([3]; Example 10 patient, second-line, 8-week treatment period): stable disease and no progression
tumor response ([3]; Example 10 patient, second-line, 16-week treatment period): stable disease and no progression
size of lesion ([3]; Example 10 patient, second-line, 188 mm lesion (baseline 250 mm), after 16 weeks): unchanged in size
size of lesion ([3]; Example 10 patient, second-line, baseline 250 mm (abdomen), after 8 weeks): 188 mm
size of lesion ([3]; Example 11 patient, first-line, baseline 77 mm (liver), after 8 weeks): 89 mm
tumor response ([3]; Example 12 patient, second-line, 8-week treatment period): stable disease
size of lesion ([3]; Example 12 patient, second-line, baseline 26 mm (lung), after 8 weeks): 30 mm

Nc1nc(=O)c2c([nH]1)NCC1CN(c3ccc(C(=O)N[C@@H](CCC(=O)[O-])C(=O)[O-])cc3)CN21.[Ca+2] (stereo partly drawn) [CoFactor, (dl)-5,10,-methylenepteroyl-monoglutamate calcium salt]
overall response rate [4]: 35%
clinical benefit, defined as stable disease or tumor response, proportion of patients [5]: 40%
efficacy and safety versus leucovorin arm [6]: no significant differences

O=c1[nH]cc(F)c(=O)[nH]1 [5-FU, 5-fluorouracil]
overall response rate ([1]; 5-FU alone): 10-15%
response rate ([2]; 5-FU given as a monotherapy): around 10%
